{"source": "ChEMBL document CHEMBL3763012", "about": "“From Sphingosine Kinase to Dihydroceramide Desaturase: A Structure-Activity Relationship (SAR) Study of the Enzyme Inhibitory and Anticancer Activity of 4-((4-(4-Chlorophenyl)thiazol-2-yl)amino)phenol (SKI-II)” (J Med Chem, 2016)", "key": {"[1]": {"target": "T1, Sphingolipid delta(4)-desaturase DES1 (Homo sapiens) (UniProt O15121)", "T1 sequence (whole entry)": "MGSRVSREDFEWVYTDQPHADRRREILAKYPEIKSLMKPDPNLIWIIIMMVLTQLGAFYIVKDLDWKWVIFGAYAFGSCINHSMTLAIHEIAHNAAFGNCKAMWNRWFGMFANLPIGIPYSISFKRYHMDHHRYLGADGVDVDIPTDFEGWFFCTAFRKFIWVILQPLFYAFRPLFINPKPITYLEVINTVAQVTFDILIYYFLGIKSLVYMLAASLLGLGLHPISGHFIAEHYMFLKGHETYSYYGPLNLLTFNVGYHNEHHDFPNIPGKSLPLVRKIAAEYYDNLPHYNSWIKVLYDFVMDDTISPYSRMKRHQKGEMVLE", "assay": "Inhibition of Des1 activity in human Jurkat cells using fluorescence labeled DhCer-C6-NBD as substrate at 0.1 to 10 uM after 3 hrs by HPLC method", "type": "cell-based"}, "[2]": {"assay": "Antiproliferative activity against human PC3 cells after 72 hrs by MTS assay", "type": "functional", "details": "PC-3, 72 h"}, "[3]": {"tested_on": "HEK293", "assay": "Induction of SK1 degradation in HEK293 cells at 10 uM after 16 hrs by western blotting analysis in presence of proteasome inhibitor MG132", "type": "functional, cell-based", "details": "Homo sapiens"}, "[4]": {"target": "T2, Sphingosine kinase 2 (Homo sapiens) (UniProt Q9NRA0)", "T2 sequence (whole entry)": "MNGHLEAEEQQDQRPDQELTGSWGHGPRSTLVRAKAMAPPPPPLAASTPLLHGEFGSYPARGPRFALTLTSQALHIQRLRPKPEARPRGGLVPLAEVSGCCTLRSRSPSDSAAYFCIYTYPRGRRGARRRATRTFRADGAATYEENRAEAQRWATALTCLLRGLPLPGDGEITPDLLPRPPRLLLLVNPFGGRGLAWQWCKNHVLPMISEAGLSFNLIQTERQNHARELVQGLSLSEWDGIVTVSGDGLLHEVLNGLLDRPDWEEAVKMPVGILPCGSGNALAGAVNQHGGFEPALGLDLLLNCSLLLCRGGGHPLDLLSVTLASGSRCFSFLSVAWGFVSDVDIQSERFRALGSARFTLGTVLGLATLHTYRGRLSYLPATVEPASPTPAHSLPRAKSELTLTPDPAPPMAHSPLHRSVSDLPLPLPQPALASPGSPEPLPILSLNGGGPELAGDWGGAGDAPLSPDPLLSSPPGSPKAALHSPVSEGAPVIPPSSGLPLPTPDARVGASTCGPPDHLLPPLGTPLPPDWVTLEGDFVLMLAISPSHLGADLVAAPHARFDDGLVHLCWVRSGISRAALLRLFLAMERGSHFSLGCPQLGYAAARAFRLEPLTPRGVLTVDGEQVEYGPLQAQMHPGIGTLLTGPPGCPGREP", "assay": "Inhibition of recombinant human SK2 assessed as production of [32P] S1P using sphingosine as substrate at 10 uM by TLC method in presence of 100 uM [gamma32P]-ATP relative to control; values are per cent of control"}, "[5]": {"target": "T3, Sphingosine kinase 1 (Homo sapiens, UniProt Q9NYA1)", "T3 sequence (Q9NYA1 whole entry)": "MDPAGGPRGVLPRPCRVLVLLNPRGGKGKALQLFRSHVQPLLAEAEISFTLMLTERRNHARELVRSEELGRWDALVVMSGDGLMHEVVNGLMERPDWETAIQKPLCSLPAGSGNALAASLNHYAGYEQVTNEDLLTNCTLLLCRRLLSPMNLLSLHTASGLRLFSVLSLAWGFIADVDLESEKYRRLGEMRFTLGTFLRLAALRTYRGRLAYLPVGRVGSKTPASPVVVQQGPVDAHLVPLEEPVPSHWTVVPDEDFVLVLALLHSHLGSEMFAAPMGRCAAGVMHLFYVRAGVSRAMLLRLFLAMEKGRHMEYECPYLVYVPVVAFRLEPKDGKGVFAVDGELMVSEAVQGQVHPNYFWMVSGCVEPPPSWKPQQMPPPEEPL", "assay": "Inhibition of recombinant His-tagged human SK1 assessed as production of [32P]-S1P using 10 uM sphingosine as substrate by TLC method in presence of 1 mM [gamma32P]-ATP"}, "[6]": {"target": "T4, Sphingosine kinase 2 (Homo sapiens, UniProt Q9NRA0)", "T4 sequence (Q9NRA0 whole entry)": "T2 sequence (whole entry)", "assay": "Inhibition of recombinant human SK2 assessed as production of [32P] S1P using 10 uM sphingosine as substrate by TLC method in presence of 1 mM [gamma32P]-ATP relative to control"}, "[7]": {"target": "T1, Sphingolipid delta(4)-desaturase DES1 (Homo sapiens)", "assay": "Inhibition of Des1 (unknown origin) at 30 uM"}, "[8]": {"target": "T3, Sphingosine kinase 1", "assay": "Inhibition of human SK1 using D-erythro sphingosine as substrate and gamma[33P]ATP by Lineweaver-Burk plot analysis"}, "[9]": {"target": "T4, Sphingosine kinase 2", "assay": "Inhibition of human SK2 using D-erythro sphingosine as substrate and gamma[33P]ATP by Lineweaver-Burk plot analysis"}, "[10]": {"target": "T1, Sphingolipid delta(4)-desaturase DES1 (Homo sapiens)", "assay": "Irreversible inhibition of Des1 activity in human Jurkat cells treated with parent compound treated with fenretinide using fluorescence labeled DhCer-C6-NBD as substrate by HPLC method", "type": "cell-based", "details": "TDE = time-dependent effect"}, "[11]": {"target": "T5, Sphingolipid delta(4)-desaturase DES1 (Homo sapiens, UniProt O15121)", "T5 sequence (O15121 whole entry)": "T1 sequence (whole entry)", "assay": "Drug level in human Jurkat cells assessed as DES1-mediated compound oxidation treated with fenretinide", "type": "ADME, cell-based"}, "[12]": {"target": "T3, Sphingosine kinase 1", "assay": "Inhibition of SK1 (unknown origin)"}, "[13]": {"target": "T4, Sphingosine kinase 2", "assay": "Inhibition of SK2 (unknown origin)"}, "[14]": {"assay": "Cytotoxicity against human PC3 cells after 72 hrs by MTT assay", "type": "functional", "details": "PC-3, 72 h"}, "[15]": {"target": "T5, Sphingolipid delta(4)-desaturase DES1", "assay": "Drug metabolism in human Jurkat cells assessed as DES1-mediated (2E,4E,6E,8E)-3,7-dimethyl-N-(4-oxocyclohexa-2,5-dienylidene)-9-(2,6,6-trimethylcyclohex-1-enyl)nona-2,4,6,8-tetraenamide formation", "type": "ADME, cell-based"}, "[16]": {"target": "T1, Sphingolipid delta(4)-desaturase DES1 (Homo sapiens)", "assay": "Inhibition of Des1 activity in human Jurkat cells using fluorescence labeled DhCer-C6-NBD as substrate at 10 uM after 3 hrs by HPLC method", "type": "cell-based"}, "[17]": {"target": "T1, Sphingolipid delta(4)-desaturase DES1 (Homo sapiens)", "assay": "Inhibition of Des1 activity in human Jurkat cells using fluorescence labeled DhCer-C6-NBD as substrate at 1 and 10 uM after 3 hrs by HPLC method", "type": "cell-based"}, "[18]": {"tested_on": "PC-3", "assay": "Increase in total dhCer level in human PC3 cells at 10 uM after 5 hrs by LC-MS analysis", "type": "functional, cell-based"}, "[19]": {"tested_on": "PC-3", "assay": "Anticlonogenic activity against human PC3 cells at 0.05 to 10 uM after 21 days by soft agar colony forming assay", "type": "functional, cell-based"}, "[20]": {"target": "T4, Sphingosine kinase 2", "assay": "Inhibition of recombinant SK2 (unknown origin) expressed in Sf9 cells assessed as [33P]S1P formation using D-erythro sphingosine as substrate and gamma[33P]ATP by liquid scintillation counting"}}, "note": "Calls of active or inactive are those of the source. No cut-off for these calls is given here."}
{"smiles": "Oc1ccc(Nc2nnc(-c3ccc(I)cc3)o2)cc1", "values": [{"measurement": "inhibition", "setting": "[1]", "result": "Active"}]}
{"smiles": "Cc1cc(CS(=O)(=O)c2ccccc2)cc(OCc2ccc(CN3CCC[C@@H]3CO)cc2)c1", "values": [{"measurement": "GI50", "setting": "[2]", "result": 19, "unit": "µM"}, {"measurement": "Activity", "setting": "[3]", "result": "Active"}, {"measurement": "residual activity", "setting": "[4]", "result": 45, "unit": "%"}]}
{"smiles": "Clc1ccc(-c2nnc(Nc3ccc(-c4nn[nH]n4)cc3)o2)cc1", "values": [{"measurement": "GI50", "setting": "[2]", "result": 15, "unit": "µM"}, {"measurement": "residual activity", "setting": "[4]", "result": 70, "unit": "%"}]}
{"smiles": "Clc1ccc(-c2nnc(NCc3ccncc3)o2)cc1", "values": [{"measurement": "GI50", "setting": "[2]", "result": "> 100", "unit": "µM"}, {"measurement": "IC50", "setting": "[5]", "result": 3.1, "unit": "µM"}, {"measurement": "IC50", "setting": "[6]", "result": 5.5, "unit": "µM"}, {"measurement": "residual activity", "setting": "[4]", "result": 39, "unit": "%"}]}
{"smiles": "O=C(NCc1ccncc1)C12CC3CC(C1)CC(c1ccc(Cl)cc1)(C3)C2", "values": [{"measurement": "inhibition", "setting": "[7]", "result": 40, "unit": "%"}]}
{"smiles": "Oc1ccc(-c2nnc(-c3ccc(Cl)cc3)o2)cc1", "values": [{"measurement": "inhibition", "setting": "[1]", "result": "inactive"}]}
{"smiles": "Cc1ccc(S(=O)(=O)Nc2ccccc2/C=N/c2ccccc2NS(=O)(=O)c2ccc(C)cc2)cc1", "values": [{"measurement": "Ki", "setting": "[8]", "result": 27, "unit": "µM"}, {"measurement": "Ki", "setting": "[9]", "result": 6.9, "unit": "µM"}]}
{"smiles": "CCCCCCCc1nc(-c2ccc(CNC(=O)[C@H]3NCC[C@@H]3O)cc2)no1", "values": [{"measurement": "GI50", "setting": "[2]", "result": "> 100", "unit": "µM"}, {"measurement": "Activity", "setting": "[3]", "result": "Active"}, {"measurement": "residual activity", "setting": "[4]", "result": 112, "unit": "%"}]}
{"smiles": "CC1=C(/C=C/C(C)=C/C=C/C(C)=C/C(=O)N=C2C=CC(=O)C=C2)C(C)(C)CCC1", "values": [{"measurement": "inhibition", "setting": "[10]", "result": "tde"}, {"measurement": "Drug metabolism", "setting": "[11]", "result": "metabolite_detected"}]}
{"smiles": "OC[C@H]1C[C@H](O)CN1CCCc1ccc(Nc2nc(-c3cccc(C(F)(F)F)c3)cs2)cc1", "values": [{"measurement": "IC50", "setting": "[12]", "result": 0.02, "unit": "µM"}, {"measurement": "IC50", "setting": "[13]", "result": 0.148, "unit": "µM"}]}
{"smiles": "CC1=C(/C=C/C(C)=C/C=C/C(C)=C/C(=O)Nc2ccc(O)cc2)C(C)(C)CCC1", "note": "[FENRETINIDE]", "values": [{"measurement": "GI50", "setting": "[14]", "result": 2, "unit": "µM"}, {"measurement": "Drug metabolism", "setting": "[15]", "result": "metabolite_detected"}]}
{"smiles": "N/C(=N\\O)c1ccc(-c2nnc(-c3ccc(Cl)cc3)o2)cc1", "values": [{"measurement": "inhibition", "setting": "[16]", "result": "inactive"}]}
{"smiles": "N/C(=N\\O)c1ccc(Nc2nnc(-c3ccc(Cl)cc3)o2)cc1", "values": [{"measurement": "inhibition", "setting": "[17]", "result": "Active"}]}
{"smiles": "Oc1ccc(Nc2nc(-c3ccc(Cl)cc3)cs2)cc1", "values": [{"measurement": "GI50", "setting": "[2]", "result": 11, "unit": "µM"}, {"measurement": "Activity", "setting": "[3]", "result": "Active"}, {"measurement": "inhibition", "setting": "[1]", "result": "Active"}, {"measurement": "Activity", "setting": "[18]", "result": "Active"}, {"measurement": "Activity", "setting": "[19]", "result": "Active"}, {"measurement": "residual activity", "setting": "[4]", "result": 90, "unit": "%"}]}
{"smiles": "Oc1ccc(Nc2nnc(-c3ccc(Cl)cc3)o2)cc1", "values": [{"measurement": "inhibition", "setting": "[1]", "result": "Active"}]}
{"smiles": "CCCCCCCCc1ccc(-c2noc([C@H]3CCCN3C(=N)N)n2)cc1", "values": [{"measurement": "Ki", "setting": "[20]", "result": 1.3, "unit": "µM"}]}
